Assay results as given in US20230203059A1, “MACROCYCLIC JAK INHIBITOR AND USES THEREOF” (Biopolar Hongye (Guangdong) Pharmaceutical Co. Ltd., priority 2020, published 2023).

Columns and labels:
Assay type in all cases: biochemical
JAK1 = JAK1 (Homo sapiens, UniProt P23458); assay: JAK kinase activity, homogeneous time-resolved fluorescence (JAK1 reaction system); settings: ATP 2 μM, JAK1 protein 0.2 ng/μL; read-out: JAK 1 activity
Outline: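 HTRF assay: JAK1 (0.2 ng/μL) with 2 μM ATP and substrate in 50 mM Hepes pH 7.0, 5 mM MgCl2, 1 mM DTT, 1 h. Phospho-substrate antibody/XL-615 detection with EDTA; 665/615 nm ratio, excitation 320 nm. IC50 from Hill-type fit against no-enzyme and no-compound controls.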

JAK2 = JAK2 (Homo sapiens, UniProt O60674); assay: JAK kinase activity, homogeneous time-resolved fluorescence (JAK2 reaction system); settings: ATP 2 μM, JAK2 protein 0.01 ng/μL
Outline: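 IC50 derived by Hill-equation fit of the 665/615 nm time-resolved fluorescence ratio after EDTA-containing detection mix with anti-phosphosubstrate antibody. Preceding 1 h reaction contained 2 μM ATP, 0.01 ng/μL JAK2, substrate, 50 mM Hepes pH 7.0, 5 mM MgCl2, 1 mM DTT.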

JAK3 = molecular target: T1, JAK3 (Homo sapiens, UniProt P52333); assay: JAK kinase activity, homogeneous time-resolved fluorescence (JAK3 reaction system); settings: ATP 2 μM, JAK3 protein 0.04 ng/μL; read-out: JAK 3 activity
T1 sequence (P52333 1-1124): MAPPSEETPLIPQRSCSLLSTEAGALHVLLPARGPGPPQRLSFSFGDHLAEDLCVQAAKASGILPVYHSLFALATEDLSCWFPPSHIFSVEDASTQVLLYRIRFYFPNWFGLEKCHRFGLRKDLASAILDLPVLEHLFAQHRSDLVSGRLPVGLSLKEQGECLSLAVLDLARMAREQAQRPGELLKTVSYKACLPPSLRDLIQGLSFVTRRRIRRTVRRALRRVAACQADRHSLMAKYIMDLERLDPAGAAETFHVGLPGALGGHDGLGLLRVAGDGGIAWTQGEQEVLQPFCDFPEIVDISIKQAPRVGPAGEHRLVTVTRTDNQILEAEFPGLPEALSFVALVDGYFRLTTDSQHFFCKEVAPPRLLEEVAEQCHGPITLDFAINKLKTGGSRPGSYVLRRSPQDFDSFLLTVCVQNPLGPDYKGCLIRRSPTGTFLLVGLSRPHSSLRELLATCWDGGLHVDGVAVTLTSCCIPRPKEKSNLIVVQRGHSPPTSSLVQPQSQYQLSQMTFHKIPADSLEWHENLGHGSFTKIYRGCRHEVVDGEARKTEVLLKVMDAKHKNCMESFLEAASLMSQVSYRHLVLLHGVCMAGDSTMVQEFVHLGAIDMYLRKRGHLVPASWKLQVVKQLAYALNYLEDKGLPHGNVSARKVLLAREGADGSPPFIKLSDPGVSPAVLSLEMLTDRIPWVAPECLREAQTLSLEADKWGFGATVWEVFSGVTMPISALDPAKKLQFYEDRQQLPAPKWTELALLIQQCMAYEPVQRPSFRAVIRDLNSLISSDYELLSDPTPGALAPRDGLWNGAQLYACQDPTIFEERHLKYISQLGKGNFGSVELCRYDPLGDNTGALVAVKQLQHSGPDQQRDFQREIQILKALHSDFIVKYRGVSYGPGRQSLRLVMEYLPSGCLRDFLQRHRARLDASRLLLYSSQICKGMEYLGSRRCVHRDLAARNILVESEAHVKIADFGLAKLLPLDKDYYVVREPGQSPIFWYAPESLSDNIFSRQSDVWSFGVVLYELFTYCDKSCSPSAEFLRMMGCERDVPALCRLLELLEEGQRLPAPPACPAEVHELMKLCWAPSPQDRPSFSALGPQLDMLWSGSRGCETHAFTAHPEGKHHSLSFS

TYK2 = TYK2 (Homo sapiens, UniProt P29597); assay: JAK kinase activity, homogeneous time-resolved fluorescence (TYK2 reaction system); settings: ATP 2 μM, TYK2 protein 0.2 ng/μL; read-out: TYK 2 activity
Outline: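 Activity read as the 665 nm/615 nm ratio after adding EDTA-containing detection mix with anti-phospho-substrate antibody and XL-615. Beforehand, 0.2 ng/μL TYK2, 2 μM ATP, substrate and compound reacted 1 h in pH 7.0 Hepes buffer with MgCl2 and DTT. IC50 fitted with Hill-slope equation.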

TYK2, sequence (P29597 whole entry): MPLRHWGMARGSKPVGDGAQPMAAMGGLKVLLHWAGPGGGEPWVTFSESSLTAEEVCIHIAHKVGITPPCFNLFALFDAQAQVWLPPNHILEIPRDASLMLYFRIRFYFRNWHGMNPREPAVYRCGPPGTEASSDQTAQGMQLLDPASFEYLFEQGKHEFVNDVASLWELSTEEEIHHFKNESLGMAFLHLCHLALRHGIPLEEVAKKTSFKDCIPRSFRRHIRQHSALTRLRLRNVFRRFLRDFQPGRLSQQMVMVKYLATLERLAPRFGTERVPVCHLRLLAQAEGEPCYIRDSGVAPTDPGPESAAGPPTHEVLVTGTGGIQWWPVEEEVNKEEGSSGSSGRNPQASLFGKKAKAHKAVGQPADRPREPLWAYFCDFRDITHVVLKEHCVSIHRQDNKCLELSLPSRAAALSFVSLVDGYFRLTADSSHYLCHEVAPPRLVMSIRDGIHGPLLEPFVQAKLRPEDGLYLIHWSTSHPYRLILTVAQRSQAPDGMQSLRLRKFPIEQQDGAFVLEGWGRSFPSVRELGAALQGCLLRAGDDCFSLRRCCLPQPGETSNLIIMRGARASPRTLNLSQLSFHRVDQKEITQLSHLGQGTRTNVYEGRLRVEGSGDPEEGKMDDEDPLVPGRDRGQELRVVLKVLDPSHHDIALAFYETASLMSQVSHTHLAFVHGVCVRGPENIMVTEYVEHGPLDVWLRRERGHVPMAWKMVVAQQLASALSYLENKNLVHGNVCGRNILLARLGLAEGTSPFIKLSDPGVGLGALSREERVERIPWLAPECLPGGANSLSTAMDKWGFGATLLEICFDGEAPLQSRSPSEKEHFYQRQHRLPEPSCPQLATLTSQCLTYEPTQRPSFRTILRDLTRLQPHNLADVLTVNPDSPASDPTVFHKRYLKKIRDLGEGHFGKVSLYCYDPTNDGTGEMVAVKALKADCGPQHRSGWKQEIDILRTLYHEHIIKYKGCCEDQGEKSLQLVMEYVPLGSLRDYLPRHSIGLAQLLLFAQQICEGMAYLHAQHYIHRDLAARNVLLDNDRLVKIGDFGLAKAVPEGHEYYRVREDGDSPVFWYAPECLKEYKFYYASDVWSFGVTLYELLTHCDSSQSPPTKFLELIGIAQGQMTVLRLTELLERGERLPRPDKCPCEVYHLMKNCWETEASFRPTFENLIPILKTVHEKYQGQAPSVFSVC
JAK1, sequence (P23458 whole entry): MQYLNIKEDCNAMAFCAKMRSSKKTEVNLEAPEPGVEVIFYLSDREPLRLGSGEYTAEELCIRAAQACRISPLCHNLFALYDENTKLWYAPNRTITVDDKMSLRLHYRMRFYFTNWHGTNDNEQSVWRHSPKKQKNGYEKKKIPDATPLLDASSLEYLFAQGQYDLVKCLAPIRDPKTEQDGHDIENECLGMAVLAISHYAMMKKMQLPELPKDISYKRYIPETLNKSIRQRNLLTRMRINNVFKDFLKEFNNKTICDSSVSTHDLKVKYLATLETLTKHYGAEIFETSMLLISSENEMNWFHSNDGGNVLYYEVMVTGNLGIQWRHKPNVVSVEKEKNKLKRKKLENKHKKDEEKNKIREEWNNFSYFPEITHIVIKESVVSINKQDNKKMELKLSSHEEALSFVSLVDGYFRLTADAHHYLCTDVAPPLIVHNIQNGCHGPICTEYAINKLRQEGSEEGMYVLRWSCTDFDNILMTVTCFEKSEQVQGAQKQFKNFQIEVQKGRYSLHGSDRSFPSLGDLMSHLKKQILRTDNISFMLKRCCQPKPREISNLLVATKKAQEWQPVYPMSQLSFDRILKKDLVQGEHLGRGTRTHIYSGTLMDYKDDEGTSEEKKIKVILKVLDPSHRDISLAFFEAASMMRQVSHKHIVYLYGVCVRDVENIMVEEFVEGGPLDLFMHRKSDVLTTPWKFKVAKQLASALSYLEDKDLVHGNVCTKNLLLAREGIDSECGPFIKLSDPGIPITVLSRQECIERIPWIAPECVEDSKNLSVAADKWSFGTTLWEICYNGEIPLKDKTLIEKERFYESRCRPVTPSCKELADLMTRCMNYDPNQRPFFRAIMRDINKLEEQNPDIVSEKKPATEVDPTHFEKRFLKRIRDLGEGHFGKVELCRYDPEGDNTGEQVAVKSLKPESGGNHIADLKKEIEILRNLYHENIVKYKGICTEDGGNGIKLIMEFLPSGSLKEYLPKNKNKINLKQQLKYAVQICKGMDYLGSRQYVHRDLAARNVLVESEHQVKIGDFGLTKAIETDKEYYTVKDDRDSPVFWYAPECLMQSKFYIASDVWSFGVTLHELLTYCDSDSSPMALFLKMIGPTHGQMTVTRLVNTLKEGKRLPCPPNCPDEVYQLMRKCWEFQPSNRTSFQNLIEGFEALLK
JAK2, sequence (O60674 whole entry): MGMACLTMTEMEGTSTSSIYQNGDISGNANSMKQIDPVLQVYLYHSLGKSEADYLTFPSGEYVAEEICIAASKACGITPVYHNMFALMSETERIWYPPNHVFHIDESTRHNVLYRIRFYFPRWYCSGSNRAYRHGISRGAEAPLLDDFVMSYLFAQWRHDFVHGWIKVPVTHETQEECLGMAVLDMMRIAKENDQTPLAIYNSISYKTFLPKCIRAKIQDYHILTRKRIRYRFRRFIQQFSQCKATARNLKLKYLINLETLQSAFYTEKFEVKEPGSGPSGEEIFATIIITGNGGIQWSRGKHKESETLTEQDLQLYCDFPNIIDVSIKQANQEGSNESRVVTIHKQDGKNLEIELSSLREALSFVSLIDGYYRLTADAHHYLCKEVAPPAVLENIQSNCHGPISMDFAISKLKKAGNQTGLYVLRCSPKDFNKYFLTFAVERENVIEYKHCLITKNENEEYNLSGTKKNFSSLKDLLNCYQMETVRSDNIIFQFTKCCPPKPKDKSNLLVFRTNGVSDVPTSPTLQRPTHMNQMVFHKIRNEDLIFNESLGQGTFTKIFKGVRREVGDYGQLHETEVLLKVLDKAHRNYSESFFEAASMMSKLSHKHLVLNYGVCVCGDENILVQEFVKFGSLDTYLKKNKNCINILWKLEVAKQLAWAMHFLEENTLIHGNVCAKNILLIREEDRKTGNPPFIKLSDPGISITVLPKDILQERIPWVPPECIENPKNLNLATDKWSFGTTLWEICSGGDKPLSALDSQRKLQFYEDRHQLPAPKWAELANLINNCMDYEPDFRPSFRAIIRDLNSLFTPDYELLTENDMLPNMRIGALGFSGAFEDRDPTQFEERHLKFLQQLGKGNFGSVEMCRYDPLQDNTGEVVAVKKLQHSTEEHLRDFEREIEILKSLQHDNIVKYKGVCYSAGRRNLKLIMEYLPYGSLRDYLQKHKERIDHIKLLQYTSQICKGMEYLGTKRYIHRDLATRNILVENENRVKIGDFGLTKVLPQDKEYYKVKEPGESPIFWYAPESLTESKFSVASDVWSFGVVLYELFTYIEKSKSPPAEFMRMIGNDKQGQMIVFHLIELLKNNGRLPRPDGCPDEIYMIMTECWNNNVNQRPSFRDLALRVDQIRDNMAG

Row | Compound | IC50 (JAK1) | IC50 (JAK2) | IC50 (JAK3) | IC50 (TYK2)
1 | CC1(C)CCNC(=O)c2ccc(c(N)c2)-c2ccnc(n2)Nc2ccc(OC3CCCOC3)c(c2)COC1 (stereo not drawn) [Example 168, 1^2-amino-8,8-dimethyl-4^4-((tetra-hydro-2H-pyran-3-yl)oxy)-6-oxa-3,11-diaza-2(4,2)-pyrimidina-1(1,4),4(1,3)-dibenzenacyclododecaphan-12-one] | > 10000 nM | 1000 to 10000 nM | 1000 to 10000 nM | > 10000 nM
2 | CC1CCNC(=O)c2ccc(c(N)c2)-c2ccnc(n2)Nc2ccc(OCC3COC3)c(c2)COC1 (stereo not drawn) [Example 175] | 1000 to 10000 nM | 101 to 1000 nM | 11 to 100 nM | 1000 to 10000 nM
3 | CC1(C)CCNC(=O)c2ccc(c(N)c2)-c2ccnc(n2)Nc2ccc(OC3CC3)c(c2)COC1 [Example 176, 1^2-amino-4^4-cyclopropoxy-8,8-di-methyl-6-oxa-3,11-diaza-2(4,2)-py-rimidina-1(1,4),4(1,3)-dibenzena-cyclododecaphan-12-one] | > 10000 nM | > 10000 nM | 1000 to 10000 nM | > 10000 nM
4 | COc1ccc(F)cc1COc1ccc2cc1COCCCCNC(=O)c1ccc(c(N)c1)-c1ccnc(n1)N2 [Example 177, 1^2-amino-4^4-((5-fluoro-2-methoxy-benzyl)oxy)-6-oxa-3,11-diaza-2(4,2)-pyrimidina-1(1,4),4(1,3)-dibenz-enacyclododecaphan-12-one] | 1000 to 10000 nM | 1000 to 10000 nM | 101 to 1000 nM | > 10000 nM
5 | CN(C)C(=O)C(C)(C)Oc1ccc2cc1COCCCCNC(=O)c1ccc(c(N)c1)-c1ccnc(n1)N2 [Example 179, 2-((1^2-amino-12-oxo-6-oxa-3,11-di-aza-2(4,2)-pyrimidina-1(1,4),4(1,3)-dibenzenacyclododecaphan-4^4-yl)oxy)-N,N-trimethylpropoiona-mide] | 1000 to 10000 nM | 1000 to 10000 nM | 101 to 1000 nM | > 10000 nM
6 | C[C@H]1CCOCc2cc(ccc2OC2CC2)Nc2nccc(n2)-c2ccc(cc2N)C(=O)NC1 [Example 180, (S)-1^2-amino-4^4-cyclopropoxy-9-methyl-6-oxa-3,11-diaza-2(4,2)-py-rimidina-1(1,4),4(1,3)-dibenzena-cyclododecaphan-12-one] | 1000 to 10000 nM | 101 to 1000 nM | 11 to 100 nM | 1000 to 10000 nM
7 | COc1cccc(F)c1COc1ccc2cc1COCCC(C)CNC(=O)c1ccc(c(N)c1)-c1ccnc(n1)N2 (stereo not drawn) [Example 182, 1^2-amino-4^4-((2-fluoro-6-methoxy-benzyl)oxy)-9-methyl-6-oxa-3,11-diaza-2(4,2)-pyrimidina-1(1,4),4(1,3)-dibenzenacyclododecaphan-12-one] | 1000 to 10000 nM | 101 to 1000 nM | < 10 nM | 1000 to 10000 nM

Further lines, results first:

Row | IC50 (JAK1) | IC50 (JAK2) | IC50 (JAK3) | IC50 (TYK2) | Compound
8 | 101 to 1000 nM | 11 to 100 nM | < 10 nM | 101 to 1000 nM | CC1CCOCc2cc(ccc2OC2CCCOC2)Nc2nccc(n2)-c2ccc(cc2N)C(=O)NC1 (stereo not drawn) [Example 165, 1^2-amino-9-methyl-4^4-((tetrahydro-2H-pyran-3-yl)oxy)-6-oxa-3,11-di-aza-2(4,2)-pyrimidina-1(1,4),4(1,3)-dibenzenacyclododecaphan-12-one]
9 | 1000 to 10000 nM | 1000 to 10000 nM | 101 to 1000 nM | > 10000 nM | CC1CCOCc2cc(ccc2OCC2CCOC2)Nc2nccc(n2)-c2ccc(cc2[N+](=O)[O-])C(=O)NC1 (stereo not drawn) [Example 166, 9-methyl-1^2-nitro-4^4-((tetrahydro-furan-3-yl)methoxy)-6-oxa-3,11-di-aza-2(4,2)-pyrimidina-1(1,4),4(1,3)-dibenzenacyclododecaphan-12-one]
10 | 101 to 1000 nM | 101 to 1000 nM | < 10 nM | 101 to 1000 nM | CC1CCOCc2cc(ccc2OCC2CCOC2)Nc2nccc(n2)-c2ccc(cc2N)C(=O)NC1 (stereo not drawn) [Example 167, 1-amino-9-methyl-4^4-((tetahydro-furan-3-yl)methoxy)-6-oxa-3,11-diaza-2(4,2)-pyrimidina-1(1,4),4(1,3)-dibenzenacyclododecaphan-12-one]
11 | 1000 to 10000 nM | 101 to 1000 nM | 11 to 100 nM | 1000 to 10000 nM | CC1CCOCc2cc(ccc2OCC2CCCC2)Nc2nccc(n2)-c2ccc(cc2N)C(=O)NC1 (stereo not drawn) [Example 169, 1^2-amino-4^4-(cyclopentylmethoxy)-9-methyl-6-oxa-3,11-diaza-2(4,2)-pyrimidina-1(1,4),4(1,3)-dibenzena-cyclododecaphan-12-one]
12 | 1000 to 10000 nM | 1000 to 10000 nM | 101 to 1000 nM | 1000 to 10000 nM | CC1(C)CCOCc2cc(ccc2OC2CCCOC2)Nc2nccc(n2)-c2ccc(cc2N)C(=O)NC1 (stereo not drawn) [Example 170, 1^2-amino-9,9-dimethyl-4^4-((tetra-hydroxy-2H-pyran-3-yl)oxy)-6-oxa-3,11-diaza-2(4,2)-pyrimidina-1(1,4),4(1,3)-dibenzenacyclododecaphan-12-one]
13 | 1000 to 10000 nM | 1000 to 10000 nM | 1000 to 10000 nM | > 10000 nM | COc1cccc(F)c1COc1ccc2cc1COCCCCNC(=O)c1ccc(c([N+](=O)[O-])c1)-c1ccnc(n1)N2 [Example 171, 4^4-((2-fluoro-6-methoxybenzyl)oxy)-1^2-nitro-6-oxa-3,11-diaza-2(4,2)-pyrimidina-1(1,4),4(1,3)-di-benzenacyclododecaphan-12-one]
14 | 1000 to 10000 nM | 101 to 1000 nM | 11 to 100 nM | 1000 to 10000 nM | COc1cccc(F)c1COc1ccc2cc1COCCCCNC(=O)c1ccc(c(N)c1)-c1ccnc(n1)N2 [Example 172, 1^2-amino-4^4-((2-fluoro-6-methoxy-benzyl)oxy)-6-oxa-3,11-diaza-2(4,2)-pyrimidina-1(1,4),4(1,3)-di-benzenacyclododecaphan-12-one]
15 | 1000 to 10000 nM | 101 to 1000 nM | 11 to 100 nM | 1000 to 10000 nM | COc1cc(F)ccc1COc1ccc2cc1COCCCCNC(=O)c1ccc(c(N)c1)-c1ccnc(n1)N2 [Example 173, 1^2-amino-4^4-((4-fluoro-2-methoxy-benzyl)oxy)-6-oxa-3,11-diaza-2(4,2)-pyrimidina-1(1,4),4(1,3)-di-benzenacyclododecaphan-12-one]
16 | 1000 to 10000 nM | 1000 to 10000 nM | 1000 to 10000 nM | > 10000 nM | CC1CCNC(=O)c2ccc(c([N+](=O)[O-])c2)-c2ccnc(n2)Nc2ccc(OCC3COC3)c(c2)COC1 (stereo not drawn) [Example 174, 8-methyl-1^2-nitro-4^4-(oxetan-3-yl-methoxy)-6-oxa-3-diaza-2(4,2)-py-rimidina-1(1,4),4(1,3)-dibenzena-cyclododecaphan-12-one]
17 | 101 to 1000 nM | 11 to 100 nM | < 10 nM | 101 to 1000 nM | CC1CCOCc2cc(ccc2OC(C)C)Nc2nccc(n2)-c2ccc(cc2N)C(=O)NC1 (stereo not drawn) [Example 178, 1^2-amino-4^4-isopropoxy-9-methyl-6-oxa-3,11-diaza-2(4,2)-pyrimidin-a-1(1,4)4(1,3)-dibenzenacyclododeca-phan-12-one]
18 | 101 to 1000 nM | 11 to 100 nM | < 10 nM | 101 to 1000 nM | C[C@@H]1CCOCc2cc(ccc2OC2CC2)Nc2nccc(n2)-c2ccc(cc2N)C(=O)NC1 [Example 181, (R)-1^2-amino-4^4-cyclopropxy-9-methyl-6-ox-3,11-diaza-2 (4,2)-pyrimidina-1(1,4),4(1,3)-di-benzenacyclododecaphan-12-one]
